Data from patent publication US20240158370A1, “CK1 alpha AND DUAL CK1 alpha / GSPT1 DEGRADING COMPOUNDS” (Innovo Therapeutics, Inc., priority 2022, published 2024).

Tests used:
Type in all cases: cell-based
[1] = molecular target: GSPT1 (Homo sapiens, UniProt P15170+Q96SW2); assay: HiBiT degradation assay, GSPT1, Procedure A; parameters: HiBit-GSPT1 KI HEK293(LgBit) Cells; host or cells: HEK293(LgBit) knock-in cells
In short: (§1)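 Cells in DMEM+10% FBS at 1×10^6 cells/ml were added to pre-spotted compound (10-point dose response, 10 μM to 0.005 μM, 0.1% DMSO) and incubated 6 h at 37° C. Nano-Glo HiBiT lytic reagent was added and luminescence read. DC50 and Ymin came from 4-parameter curve fits.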

[2] = molecular target: T1, CK1α (Homo sapiens, UniProt P48729+Q96SW2); assay: HiBiT degradation assay, CK1α, Procedure A
T1 construct: CSNK1A1-HiBit KI HEK293(LgBit) Cells; host or cells: HEK293(LgBit) knock-in cells
T1 sequence (P48729 whole entry): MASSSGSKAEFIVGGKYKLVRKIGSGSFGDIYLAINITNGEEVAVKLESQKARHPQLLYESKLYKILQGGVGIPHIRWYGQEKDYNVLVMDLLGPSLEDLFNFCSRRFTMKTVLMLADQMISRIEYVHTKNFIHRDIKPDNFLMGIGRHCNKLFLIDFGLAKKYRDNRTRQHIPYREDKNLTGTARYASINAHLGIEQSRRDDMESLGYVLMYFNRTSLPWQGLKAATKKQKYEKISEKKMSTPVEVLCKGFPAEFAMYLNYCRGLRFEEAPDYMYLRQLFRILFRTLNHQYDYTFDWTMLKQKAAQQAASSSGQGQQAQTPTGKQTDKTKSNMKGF
T1 sequence (Q96SW2 whole entry): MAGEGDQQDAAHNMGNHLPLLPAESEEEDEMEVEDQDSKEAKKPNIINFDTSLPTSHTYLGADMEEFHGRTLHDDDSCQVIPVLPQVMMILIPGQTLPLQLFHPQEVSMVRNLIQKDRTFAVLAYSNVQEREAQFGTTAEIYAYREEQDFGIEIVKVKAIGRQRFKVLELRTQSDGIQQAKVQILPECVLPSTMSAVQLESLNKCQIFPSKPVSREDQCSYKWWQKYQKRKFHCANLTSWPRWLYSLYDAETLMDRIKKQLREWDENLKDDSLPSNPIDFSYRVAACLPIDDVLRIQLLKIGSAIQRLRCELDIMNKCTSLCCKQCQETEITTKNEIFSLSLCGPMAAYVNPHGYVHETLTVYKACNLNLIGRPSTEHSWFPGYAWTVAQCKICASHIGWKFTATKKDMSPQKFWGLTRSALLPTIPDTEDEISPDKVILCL
T1 sequence (Q16531 whole entry partner): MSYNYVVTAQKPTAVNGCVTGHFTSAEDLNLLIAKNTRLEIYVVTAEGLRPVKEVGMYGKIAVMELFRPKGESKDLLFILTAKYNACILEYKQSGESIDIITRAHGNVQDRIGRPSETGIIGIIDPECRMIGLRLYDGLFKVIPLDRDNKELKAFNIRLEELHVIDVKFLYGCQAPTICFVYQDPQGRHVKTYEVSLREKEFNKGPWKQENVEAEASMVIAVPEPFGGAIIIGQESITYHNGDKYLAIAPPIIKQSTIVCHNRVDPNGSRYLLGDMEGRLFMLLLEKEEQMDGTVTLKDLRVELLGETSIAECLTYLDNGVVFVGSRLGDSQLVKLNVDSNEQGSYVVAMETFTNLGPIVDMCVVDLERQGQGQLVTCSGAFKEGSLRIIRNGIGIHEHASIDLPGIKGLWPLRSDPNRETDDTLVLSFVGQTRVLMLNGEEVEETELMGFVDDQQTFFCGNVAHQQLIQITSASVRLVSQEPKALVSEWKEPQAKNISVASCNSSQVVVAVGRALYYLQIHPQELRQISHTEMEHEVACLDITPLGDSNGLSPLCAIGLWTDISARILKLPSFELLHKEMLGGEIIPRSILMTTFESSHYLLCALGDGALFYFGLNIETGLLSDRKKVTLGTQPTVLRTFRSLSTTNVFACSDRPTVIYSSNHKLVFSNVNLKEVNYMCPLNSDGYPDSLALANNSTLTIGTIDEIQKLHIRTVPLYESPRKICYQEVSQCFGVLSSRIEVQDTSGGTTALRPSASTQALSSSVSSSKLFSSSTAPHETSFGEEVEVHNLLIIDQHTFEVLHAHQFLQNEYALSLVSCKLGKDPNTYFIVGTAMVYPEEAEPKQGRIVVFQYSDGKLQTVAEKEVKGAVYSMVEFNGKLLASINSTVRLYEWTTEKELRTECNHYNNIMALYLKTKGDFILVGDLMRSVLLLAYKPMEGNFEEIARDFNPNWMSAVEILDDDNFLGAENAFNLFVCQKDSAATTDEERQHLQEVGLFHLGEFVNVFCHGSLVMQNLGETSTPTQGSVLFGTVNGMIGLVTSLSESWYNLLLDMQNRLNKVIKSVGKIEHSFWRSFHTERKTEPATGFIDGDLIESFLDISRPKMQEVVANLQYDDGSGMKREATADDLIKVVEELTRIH
In short: as §1

[3] = tested on: Z-138 cells; assay: Z-138 Proliferation Assay (Cell Titer-Glo); details: 72 hours; for Ymin (%): % remaining (percent of DMSO control); for EC50: Homo sapiens, Cell Titer-Glo, 4-parameter curve fit
Method: Z-138 Proliferation Assay
Z-138 cells were cultured in IMDM Medium supplemented with 10% heat in-activated fetal bovine serum and 1% Penicillin-Streptomycin.
10 mM stocks of compound were made from fresh powder. DMSO was added to solid compound so that the final concentration was 10 mM. Compounds were vortexed and allowed to sit for 5 minutes to ensure complete solubility. Solvated compound was aliquoted into 1 ml Eppendorf tubes and stored in a −20° C. freezer.
Z-138 cells were maintained in culture using standard cell culturing techniques.
Cells were maintained at a density of 0.8×10^6 cells/ml.
Re-constitute cell titer-glo reagent according to manufacturer's protocol.
Z-138 cells were removed from culture and cell viability and density were determined using a CellDrop™ Automated Cell Counter with Tryphan blue stain according to manufacturer's protocols. Cells were centrifuged and resuspended using fresh media to a cell density of 0.1×10^6 cells/ml. […] 40 μl of cell suspension was added to the wells of a 384 well tissue culture plate (4,000 cells/well final). Upon completing the addition of the cells to the plate, the plates were centrifuged for 30 seconds at 300 rpms to help the cells settle and to bring air bubbles to the top of the wells. Air bubbles were popped using a pipette tip.
10-point dose response curves were performed using a D300e Digital Dispenser. The highest concentration of compound used in the assay was 10,000 nM. 1:2 dilutions were performed over a 10-point range with the final DMSO concentration being 0.1%. The cells were cultured for 72 hours in the presence of compound.
After 72 hours, the cell plates were removed from the incubator and allowed to equilibrate to room temperature (about 15 minutes). 20 μl of cell titer-glo reagent was added to each well of the 384 well plate. Incubated the plate for 30 minutes in the dark. After 30 minutes, ensured that there were no air bubbles in the plate (popped bubbles with pipette tip if necessary) and analyzed plate using a luminometer.
EC50 curves were generated using Prism Graph Pad. In brief, POCs (percent of control, compound/DMSO control×100) were plotted against the compound concentrations (log scale). EC50 curves were generated using a 4-parameter curve fit.

GSPT1, sequence (P15170 whole entry): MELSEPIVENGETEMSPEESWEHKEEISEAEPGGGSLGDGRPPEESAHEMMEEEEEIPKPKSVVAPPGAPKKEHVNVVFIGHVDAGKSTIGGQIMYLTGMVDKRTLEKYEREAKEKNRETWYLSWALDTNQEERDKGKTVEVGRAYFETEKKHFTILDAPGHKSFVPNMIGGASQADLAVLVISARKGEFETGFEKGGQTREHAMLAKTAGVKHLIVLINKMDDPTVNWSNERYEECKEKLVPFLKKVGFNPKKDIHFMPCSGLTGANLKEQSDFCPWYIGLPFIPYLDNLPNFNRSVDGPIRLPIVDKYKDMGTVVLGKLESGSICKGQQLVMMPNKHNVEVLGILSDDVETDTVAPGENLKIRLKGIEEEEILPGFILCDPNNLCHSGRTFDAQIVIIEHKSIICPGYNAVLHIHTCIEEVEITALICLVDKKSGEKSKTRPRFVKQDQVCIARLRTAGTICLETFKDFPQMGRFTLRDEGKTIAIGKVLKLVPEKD
GSPT1, sequence (Q96SW2 whole entry): as the sequence (Q96SW2 whole entry) above
GSPT1, sequence (Q16531 whole entry partner): as the sequence (Q16531 whole entry partner) above

| SMILES | DC50 ([1]; six hours) [nM] | GSPT1 Ymin ([1]; six hours) | CK1α Ymin ([2]; six hours) | DC50 ([2]; six hours) [nM] | Ymin (%) [3] | EC50 [3] [nM] | DC50 ([1]; six hours incubation) [nM] | GSPT1 Ymin ([1]; six hours incubation) | CK1α Ymin ([2]; six hours incubation) | DC50 ([2]; six hours incubation) [nM] |
| --- | --- | --- | --- | --- | --- | --- | --- | --- | --- | --- |
| Cn1nc(-c2ccc3c(c2)CN(C2CCC(=O)NC2=O)C3=O)nc1-c1ccccc1 (stereo not drawn) [Example 519, 3-[5-(1-methyl-5-phenyl-1,2,4-triazol-3-yl)-1-oxo-isoindolin-2-yl]piperidine-2,6-dione] | ≥ 25 | F (F = >75-100% remaining) | C (C = 0-10% remaining) | < 25 | E (>10-25% remaining) | 10 to 100 | – | – | – | – |
| COc1ccc(-c2c(-c3ccc4c(c3)CN(C3CCC(=O)NC3=O)C4=O)cnn2C)c(F)c1 (stereo not drawn) [Example 64] | – | – | – | – | E (>10-25% remaining) | < 10 | ≥ 25 | F (F = >75-100% remaining) | C (C = 0-10% remaining) | < 25 |
| O=C1CCC(N2Cc3cc(-c4cnoc4-c4ccccc4)ccc3C2=O)C(=O)N1 (stereo not drawn) [Example 39, 3-(1-Oxo-5-(5-phenylisoxazol-4-yl)isoindolin-2-yl)piperidine-2,6-dione] | – | – | – | – | D (0-10% remaining) | 100 to 500 | ≥ 25 | F (F = >75-100% remaining) | E (E = >25-75% remaining) | < 25 |
| O=C1CCC(N2Cc3cc(-c4coc(-c5ccccc5)n4)ccc3C2=O)C(=O)N1 (stereo not drawn) [Example 37, 3-(1-Oxo-5-(2-phenyloxazol-4-yl)isoindolin-2-yl)piperidine-2,6-dione] | – | – | – | – | F (>25-50% remaining) | 10 to 100 | ≥ 25 | F (F = >75-100% remaining) | D (D = >10- 25% remaining) | < 25 |
| Cn1cc(-c2ccc3c(c2)CN(C2CCC(=O)NC2=O)C3=O)nc1-c1ccccc1 (stereo not drawn) [Example 25, 3-(5-(1-Methyl-2-phenyl-1H-imidazol-4-yl)-1-oxoisoindolin-2-yl)piperidine-2,6-dione] | – | – | – | – | D (0-10% remaining) | < 10 | ≥ 25 | F (F = >75-100% remaining) | C (C = 0-10% remaining) | < 25 |
| Cc1nc(-c2ccc3c(c2)CN(C2CCC(=O)NC2=O)C3=O)c(-c2ccccc2)o1 (stereo not drawn) [Example 19, 3-(5-(2-Methyl-5-phenyloxazol-4-yl)-1-oxoisoindolin-2-yl)piperidine-2,6-dione] | – | – | – | – | D (0-10% remaining) | < 10 | ≥ 25 | E (E = >25-75% remaining) | C (C = 0-10% remaining) | < 25 |
| Cn1cnc(-c2ccc3c(c2)CN(C2CCC(=O)NC2=O)C3=O)c1-c1cnn2ccccc12 (stereo not drawn) [Example 331] | – | – | – | – | D (0-10% remaining) | 10 to 100 | ≥ 25 | F (F = >75-100% remaining) | D (D = >10- 25% remaining) | < 25 |
| O=C1CCC(N2Cc3cc(-c4ccn(-c5ccccc5)n4)ccc3C2=O)C(=O)N1 (stereo not drawn) [Example 34, 3-(1-Oxo-5-(1-phenyl-1H-pyrazol-3-yl)isoindolin-2-yl)piperidine-2,6-dione] | – | – | – | – | E (>10-25% remaining) | 10 to 100 | ≥ 25 | F (F = >75-100% remaining) | D (D = >10- 25% remaining) | < 25 |
| Cn1nc(-c2ccc3c(c2)CN(C2CCC(=O)NC2=O)C3=O)nc1C1CCC(F)(F)CC1 (stereo not drawn) [Example 606, 3-(5-(5-(4,4-difluorocyclohexyl)-1-methyl-1H-1,2,4-triazol-3-yl)-1-oxoisoindolin-2-yl)piperidine-2,6-dione] | ≥ 25 | F (F = >75-100% remaining) | E (E = >25-75% remaining) | ≥ 25 | F (>25-50% remaining) | 10 to 100 | – | – | – | – |
| Cn1nc(-c2ccc3c(c2)CN(C2CCC(=O)NC2=O)C3=O)nc1C1CCCCC1 (stereo not drawn) [Example 614, 3-(5-(5-cyclohexyl-1-methyl-1H-1,2,4-triazol-3-yl)-1-oxoisoindolin-2-yl)piperidine-2,6-dione] | ≥ 25 | F (F = >75-100% remaining) | D (D = >10- 25% remaining) | ≥ 25 | F (>25-50% remaining) | 10 to 100 | – | – | – | – |
| Cc1c(-c2ccc3c(c2)CN(C2CCC(=O)NC2=O)C3=O)nc(C2CCOCC2)n1C (stereo not drawn) [Example 615, 3-(5-(1,5-dimethyl-2-(tetrahydro-2H-pyran-4-yl)-1H-imidazol-4-yl)-1-oxoisoindolin-2-yl)piperidine-2,6-dione] | < 25 | F (F = >75-100% remaining) | C (C = 0-10% remaining) | < 25 | E (>10-25% remaining) | 10 to 100 | – | – | – | – |
| O=C1CCC(N2Cc3cc(-c4ncn5c4-c4ccccc4C5)ccc3C2=O)C(=O)N1 (stereo not drawn) [Example 339, 3-(5-(5H-imidazo[5,1-a]isoindol-1-yl)-1-oxoisoindolin-2-yl)piperidine-2,6-dione] | – | – | – | – | D (0-10% remaining) | 10 to 100 | < 25 | F (F = >75-100% remaining) | C (C = 0-10% remaining) | < 25 |
| O=C1CCC(N2Cc3cc(-c4cn(-c5ccccc5)cn4)ccc3C2=O)C(=O)N1 (stereo not drawn) [Example 32, 3-(1-Oxo-5-(1-phenyl-1H-imidazol-4-yl)isoindolin-2-yl)piperidine-2,6-dione] | – | – | – | – | D (0-10% remaining) | < 10 | < 25 | E (E = >25-75% remaining) | D (D = >10- 25% remaining) | < 25 |
| O=C1CCC(N2Cc3cc(-c4nccn4-c4ccccc4)ccc3C2=O)C(=O)N1 (stereo not drawn) [Example 7, 3-(1-Oxo-5-(1-phenyl-1H-imidazol-2-yl)isoindolin-2-yl)piperidine-2,6-dione] | – | – | – | – | D (0-10% remaining) | < 10 | < 25 | E (E = >25-75% remaining) | C (C = 0-10% remaining) | < 25 |
| O=C1CCC(N2Cc3cc(-c4cnn(C(F)F)c4-c4ccccc4)ccc3C2=O)C(=O)N1 (stereo not drawn) [Example 422, 3-(5-(1-(difluoromethyl)-5-phenyl-1H-pyrazol-4-yl)-1-oxoisoindolin-2-yl)piperidine-2,6-dione] | < 25 | F (F = >75-100% remaining) | D (D = >10- 25% remaining) | < 25 | D (0-10% remaining) | 10 to 100 | – | – | – | – |
| CN(C)Cc1ccc(-c2c(-c3ccc4c(c3)CN(C3CCC(=O)NC3=O)C4=O)cnn2C)cc1 (stereo not drawn) [Example 224] | – | – | – | – | E (>10-25% remaining) | < 10 | ≥ 25 | F (F = >75-100% remaining) | C (C = 0-10% remaining) | < 25 |
